For series [1], the target named is T1, c-Met kinase (Homo sapiens, UniProt P08581).
T1 construct: c-Met kinase domain recombinant protein diluted with 49 μL of the reaction buffer was added
In words: Inhibitory effect on c-Met kinase activity at molecular level (ELISA).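 Further: recombinant c-Met kinase domain with 5 µM ATP, 1 h at 37 °C, substrate phosphorylation detected by anti-phosphotyrosine PY99 ELISA at 490 nm versus DMSO negative control, ATP-free wells as blank.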 The series is classed as biochemical. In general terms: An ELISA detects its analyte on a solid surface through an enzyme-linked reagent.
Experimental: Experiment for Preliminarily Evaluating the Inhibitory Effect on the Activity of Receptor Tyrosine Kinase c-Met at Molecular Level
After discarding the liquid in the wells, the plate was washed with T-PBS (0.1% Tween-20 in PBS) in an amount of 200 μL/well three times, each for 5 minutes. The ELISA plate was dried in an oven at 37° C. for 1-2 hours. 50 μl of adenosine triphosphate (ATP) solution diluted with reaction buffer (50 mM 4-hydroxyethylpiperazine ethanesulfonic acid (HEPES) pH 7.4, 50 mM MgCl2, 0.5 mM MnCl2, 0.2 mM Na3VO4, 1 mM dithiothreitol (DTT)) to a final concentration of 5 μM was added to each well. The compounds were diluted to an appropriate concentration with DMSO (1 μL/well) or a solution containing DMSO in a corresponding concentration (negative control well), and then c-Met kinase domain recombinant protein diluted with 49 μL of the reaction buffer was added therein to initiate the reaction, with two ATP-free control wells for each test. The plate was placed in a shaker (100 rpm) at 37° C. for reacting 1 hour, and washed with T-PBS three times. Primary antibody PY99 diluent was added in an amount of 100 μL/well to allow the reaction in a shaker at 37° C. for 0.5 hour, and then the plate was washed with T-PBS three times. Then the secondary antibody horseradish peroxidase labeled goat anti-mouse IgG diluent was added in an amount of 100 μL/well, and the plate was placed in a shaker at 37° C. for reacting 0.5 hour, and then washed with T-PBS three times. 2 mg/ml of o-phenylenediamine (OPD) coloring solution (diluted with 0.1 M citric acid-sodium citrate buffer (pH=5.4) containing 0.03% H2O2) was then added at 100 μL/well and reacted at 25° C. for 1-10 min with light blocked (ultrasound was required to dissolve OPD, the coloring solution was prepared when needed). The reaction was stopped by adding 2 M of H2SO4 in an amount of 50 μL/well, and a wavelength-adjustable microplate reader SPECTRA MAX 190 was read at 490 nm.
The inhibition rate of the sample was calculated by the following equation:

Series [2] has as its system EBC-1 cells. In words: Inhibition of c-Met-mediated EBC-1 cell proliferation (SRB staining). The following applies: Homo sapiens, 72 hours treatment. The series is classed as cell-based. As for the experimental part:
The inhibitory effect of the compounds on the growth of non-small cell cancer EBC-1 cell (a cell line in which Met is continually activated due to the amplification of MET gene, and is a Met-dependent tumor cell line) was measured by sulforhodamine B (SRB) staining assay. A certain amount of EBC-1 cells in their logarithmic growth phase were seeded in 96-well plates at 90 μL per well and cultured overnight, then 10 μL of different concentrations of compounds or solvent control were added thereto, three wells for each concentration. After treated by the compound for 72 hours, the adherent cells were removed of culture medium and fixed with 10% (w/v) trichloroacetic acid (100 μL/well) at 4° C. for 1 hr followed by rinsing with distilled water five times. After drying at room temperature, 100 μL of SRB solution (dissolved in 1% glacial acetic acid at 4 mg/mL) was added to each well to incubate and stain the cells for 15 min at room temperature, then unbound SRB was washed off with 1% glacial acetic acid for five times. After drying at room temperature, 100 μL of 10 mM Tris solution was added to each well. The optical density (OD value) at 515 nm was read on a VERSMax microplate reader. […] The experiment was repeated twice. The IC50 data was calculated as a range based on the test results of concentrations set in the initial screening test.
Background: In SRB staining, fixed cells bind dye roughly in proportion to their protein.

Series [3] is described as follows: Pharmacokinetic test in rats. It is filed as in vivo, Sprague-Dawley rats. Conditions: male, Sprague-Dawley, plasma, rat; for MRT: read-out: MRT. As to the method: 14 male Sprague-Dawley rats, weigh 200-220 g, were randomly divided into 4 groups with 4/3 in each group. The rats were intragastrically and intravenously administered with compound 7S and 8S respectively. The compounds were dissolved in normal saline containing 5% of DMSO and solubilized with 5% of tween-80 (Tween 80), and the final concentration of the sample was 1 mg/ml.
The rats were fasted 12 h before the test, free drinking water. They were fed 2 h after administration.
gavage administration: 0.25 h, 0.5 h, 1.0 h, 2.0 h, 3.0 h, 4.0 h, 6.0 h, 8.0 h and 24 h after administration;
intravenous administration: 5 min, 0.25 h, 0.5 h, 1.0 h, 2.0 h, 4.0 h, 6.0 h, 8.0 h and 24 h after administration;
0.3 ml venous blood was collected from the retrobulbar venous plexus of rats at the above time point, and placed in a heparinized tube and centrifuged at 11000 rpm for 5 min. The plasma was separated and frozen in a refrigerator at −20° C.
The concentrations of the compounds in rat plasma were measured by LC/MS/MS.
Pharmacokinetic parameters after administration were calculated using the non-compartmental model of the Phoenix 1.3 software (Pharsight, U.S.A.).
Peak concentration Cmax and peak time Tmax were the measured values;
The area under the curve of the drug concentration vs. time AUC0-t value: calculated according to trapezoidal rule; AUC0-∞=AUC0-t+Ct/ke, Ct is the plasma concentration at the last measurable time point, ke is the elimination rate constant;
Elimination half-life t1/2=0.693/ke;
Average retention time MRT=AUMC/AUC.
Clearance rate CL=D/AUC0-∞;
Volume of distribution at steady state Vss=CL×MRT

The subject of series [4] is human lung cancer EBC-1 xenograft tumor. Nature of the series: Growth inhibition of subcutaneous xenograft tumor of human lung cancer EBC-1 in nude mice. The series is classed as in vivo. Conditions: 50 mg/kg qd/21 po. As for the experimental part: EBC-1 cells were subcutaneously inoculated into the armpit on the right side of the nude mice in an amount of 5×10^6/mouse respectively to form xenograft tumor, which were then passaged in nude mice for three generations. Tumor tissue that was growing vigorously was cut into about 1.5 mm^3 under sterile conditions, and subcutaneously inoculated into the armpit on the right side of the nude mice, and the diameter of the xenograft tumor was measured with a vernier caliper. The diameter of the subcutaneous xenograft tumor in nude mice was measured with a vernier caliper. […] The diameter of xenograft tumor was measured twice a week and the body weight of mice was weighed during the whole experiment. The tumor volume (TV) was calculated by the following equation: TV=½×a×b^2, wherein a and b represent the length and width, respectively. The relative tumor volume (RTV) was calculated based on the measured results, and the calculation equation thereof is: RTV=Vt/V0, wherein V0 is the tumor volume measured when the mice were divided in different cages and administered (i.e., d0) and Vt is the tumor volume measured each time.
(In general: A xenograft is tissue or cells of one species grown in another, often human tumour cells in immunodeficient mice.)

Setting [5] is: po, intragastric (gavage) 10 mg/kg, mean.

Read-outs that look alike come from different tables or passages of the source.

T1 sequence (P08581 1078-1345 limits assumed): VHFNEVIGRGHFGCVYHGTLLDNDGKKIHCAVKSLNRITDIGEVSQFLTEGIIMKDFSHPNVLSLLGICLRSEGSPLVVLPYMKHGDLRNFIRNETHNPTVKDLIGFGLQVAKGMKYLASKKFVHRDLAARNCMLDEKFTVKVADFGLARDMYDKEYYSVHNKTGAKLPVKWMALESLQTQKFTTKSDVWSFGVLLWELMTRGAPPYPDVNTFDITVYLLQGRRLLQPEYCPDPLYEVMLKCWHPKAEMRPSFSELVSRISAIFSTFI

Take `O=C(Nc1ccc(F)cc1)C1(C(=O)Nc2ccc(Oc3ccnc4cc(OCCCN5CCOCC5)ncc34)c(F)c2)CC1` [Compound 8S]: in series [1], the IC50 – broadly, the midpoint of a concentration-inhibition curve – fell in the range of 1 to 10 nM. Further, the IC50 in series [2] is 10 to 100 nM. In addition, the bioavailability (commonly the share of a dose that reaches the circulation, judged against a reference dose that is usually intravenous) in series [3] (oral, gavage 10 mg/kg vs intravenous 5 mg/kg, read-out: F (absolute bioavailability)) is 38.6%. Besides, in series [3] (setting [5]), the AUC(0-inf) (usually the area under the concentration-time curve extrapolated to infinity) turned out to be 6870 ng·h/mL; the AUC(0-t) (in general, exposure summed from dosing to a finite time, without extrapolation to infinity) was determined as 6780 ng·h/mL; the Cmax (usually the maximum level reached in the sampled fluid or tissue) is 2060 ng/mL; the Tmax – broadly, the time at which the peak concentration occurs – was 1.25 h. In series [3] (setting [5]), the half-life (in general, how long it takes for the measured level to halve) was 89.3 min. In series [3] (intravenous 5 mg/kg, mean), the AUC(0-inf) worked out at 8810 ng·h/mL, the AUC(0-t) was 8770 ng·h/mL, the clearance (commonly the rate of elimination divided by the concentration) was 9.58 mL/min/kg and the half-life was 69.1 min. Further, the Vd in series [3] (intravenous 5 mg/kg, mean, read-out: Vss) was 0.667 L/kg. The MRT (as a rule, the average time that molecules of a dose stay in the body) in series [3] (iv, 5 mg/kg, intravenous 5 mg/kg, mean) was determined as 1.17 h. Besides, in series [3] (po, 10 mg/kg, intragastric (gavage) 10 mg/kg, mean), the MRT was found to be 2.71 h.
On to `O=C(Nc1ccc(F)cc1)C1(C(=O)Nc2ccc(Oc3ccnc4cc(-c5ccncc5)ncc34)c(F)c2)CC1` [Compound 46S, N-(3-fluoro-4-((7-(pyridin-4-yl)-1,6-naphthyridin-4-yl)oxy)phenyl)-N-(4-fluorophenyl)cyclopropyl-1,1-dicarboxamide], for which the results for the IC50 in series [1] and in series [2] were 1 to 10 nM and 100 to 1000 nM, respectively.
The matching figures for `O=C(Nc1ccc(F)cc1)C1(C(=O)Nc2ccc(Oc3ccnc4cc(-c5cncnc5)ncc34)c(F)c2)CC1` [Compound 47S, N-(3-fluoro-4-((7-(pyrimidin-5-yl)-1,6-naphthyridin-4-yl)oxy)phenyl)-N-(4-fluorophenyl)cyclopropyl-1,1-dicarboxamide]: 1 to 10 nM and 10 to 100 nM.
Regarding `O=C(Nc1ccc(F)cc1)C1(C(=O)Nc2ccc(Oc3ccnc4cc(-c5ccc(F)c(F)c5)ncc34)c(F)c2)CC1` [Compound 49S, N-(3-fluoro-4-((7-(3,4-difluorophenyl)-1,6-naphthyridin-4-yl)oxy)phenyl)-N-(4-fluorophenyl)cyclopropyl-1,1-dicarboxamide], the IC50 lay within 1 to 10 nM in series [1] and 10 to 100 nM in series [2].
In the case of `Cn1cc(-c2cc3nccc(Oc4ccc(NC(=O)c5c[nH]cc(-c6ccc(F)cc6)c5=O)cc4F)c3cn2)cn1` [Compound 54S, N-(3-fluoro-4-((7-(1-methyl-1H-pyrazol-4-yl)-1,6-naphthyridin-4-yl)oxy)phenyl)-5-(4-fluorophenyl)-4-oxo-1,4-dihydropyridine-3-carboxamide], the results for the IC50 in series [1] and in series [2] were 1 to 10 nM and 10 to 100 nM, respectively.
The matching figures for `O=C(Nc1ccc(F)cc1)C1(C(=O)Nc2ccc(Oc3ccnc4nc(Cl)cnc34)c(F)c2)CC1` [Compound 55S, N-(4-((3-chloropyrido[2,3-b]pyrazin-8-yl)oxy)-3-fluorophenyl)-N-(4-fluorophenyl)cyclopropyl-1,1-dicarboxamide]: 10 to 100 nM and 1000 to 10000 nM.
The matching figures for `O=C(Nc1ccc(F)cc1)C1(C(=O)Nc2ccc(Oc3ccnc4ncc(Cl)nc34)c(F)c2)CC1` [Compound 56S]: 100 to 1000 nM and 1000 to 10000 nM.
For the compound `O=C(Nc1ccc(F)cc1)C1(C(=O)Nc2ccc(Oc3ccnc4nc(N5CCOCC5)cnc34)c(F)c2)CC1` [Compound 57S], the IC50 was in the range of 10 to 100 nM in series [1] and 1000 to 10000 nM in series [2].
For `O=C(Nc1ccc(F)cc1)C1(C(=O)Nc2ccc(Oc3ccnc4ncc(N5CCOCC5)nc34)c(F)c2)CC1` [Compound 58S], in that order: 100 to 1000 nM and 1000 to 10000 nM.
As for `CN1CCN(c2cnc3c(Oc4ccc(NC(=O)C5(C(=O)Nc6ccc(F)cc6)CC5)cc4F)ccnc3n2)CC1` [Compound 59S, N-(3-fluoro-4-((3-(4-methylpiperazin-1-yl)pyrido[2,3-b]pyrazin-8-yl)oxy)phenyl)-N-(4-fluorophenyl)cyclopropyl-1,1-dicarboxamide], the IC50 lay within 1 to 10 nM in series [1] and 100 to 1000 nM in series [2].
In the case of `O=C(Nc1ccc(F)cc1)C1(C(=O)Nc2ccc(Oc3ccnc4nc(OCCN5CCOCC5)cnc34)c(F)c2)CC1` [Compound 60S, N-(3-fluoro-4-((3-(2-morpholinoethoxy)pyrido[2,3-b]pyrazin-8-yl)oxy)phenyl)-N-(4-fluorophenyl)cyclopropyl-1,1-dicarboxamide], the results for the IC50 in series [1] and in series [2] were 10 to 100 nM and 1000 to 10000 nM, respectively.
With `O=C(Nc1ccc(F)cc1)C1(C(=O)Nc2ccc(Oc3ccnc4nc(NCCCN5CCOCC5)cnc34)c(F)c2)CC1` [Compound 62S, N-(3-fluoro-4-((3-((3-morpholinopropyl)amino)pyrido[2,3-b]pyrazin-8-yl)oxy)phenyl)-N-(4-fluorophenyl) cyclopropyl-1,1-dicarboxamide], the values for the IC50 in series [1] and in series [2] were 10 to 100 nM and 1000 to 10000 nM, respectively.
For `O=C(Nc1ccc(F)cc1)C1(C(=O)Nc2ccc(Oc3ccnc4ncc(NCCCN5CCOCC5)nc34)c(F)c2)CC1` [Compound 63S, N-(3-fluoro-4-((2-((3-morpholinopropyl)amino)pyrido[2,3-b]pyrazin-8-yl)oxy)phenyl)-N-(4-fluorophenyl) cyclopropyl-1,1-dicarboxamide], in that order: 1 to 10 nM and 1000 to 10000 nM.
For `O=C(Nc1ccc(F)cc1)C1(C(=O)Nc2ccc(Oc3ccnc4nc(N5CCNCC5)cnc34)c(F)c2)CC1` [Compound 64S, N-(4-((3-piperazinyl-pyrido[2,3-b]pyrazin-8-yl)oxy)-3-fluorophenyl)-N-(4-fluorophenyl)cyclopropyl-1,1-dicarboxamide], in that order: 1 to 10 nM and 1000 to 10000 nM.
For `O=C(Nc1ccc(F)cc1)C1(C(=O)Nc2ccc(Oc3ccnc4ncc(N5CCNCC5)nc34)c(F)c2)CC1` [Compound 65S, N-(4-((2-piperazinyl-pyrido[2,3-b]pyrazin-8-yl)oxy)-3-fluorophenyl)-N-(4-fluorophenyl)cyclopropyl-1,1-dicarboxamide], in that order: 1000 to 10000 nM and 1000 to 10000 nM.
As for `O=C(Nc1ccc(F)cc1)C1(C(=O)Nc2ccc(Oc3ccnc4ncc(OCCN5CCOCC5)nc34)c(F)c2)CC1` [Compound 67S, N-(3-fluoro-4-((2-(2-morpholinoethoxy)pyrido[2,3-b]pyrazin-8-yl)oxy)phenyl)-N-(4-fluorophenyl)cyclopropyl-1,1-dicarboxamide], the IC50 in series [1] and in series [2] was 1000 to 10000 nM throughout.
As for `O=C(Nc1ccc(F)cc1)C1(C(=O)Nc2ccc(Oc3ccnc4ncc(OCCCN5CCOCC5)nc34)c(F)c2)CC1` [Compound 68S, N-(3-fluoro-4-((2-(3-morpholinopropoxy)pyrido[2,3-b]pyrazin-8-yl)oxy)phenyl)-N-(4-fluorophenyl)cyclopropyl-1,1-dicarboxamide], the IC50 in series [1] and in series [2] was 1000 to 10000 nM throughout.
In the case of `C[C@@H](Oc1cc(-c2cnn(C3CCNCC3)c2)cnc1N)c1c(Cl)ccc(F)c1Cl` [PF2341066, Crizotinib, reference compound], in series [4] (d0), the “TV (mm^3, mean ± SD) d0” value was determined as 123 ± 25 mm^3 and the “Weight (g) d0” value is listed as 17.2 g. Also, in series [4] (d21), the “RTV (mean ± SD)” value came out at 0.00 ± 0.00; the “T/C (%)” value amounted to 0.00%; the “TV (mm^3, mean ± SD) d21” value was determined as 0 ± 0 mm^3; the “Weight (g) d21” value was found to be 19.6 g.

Source of the values: patent US10710996B2, “Pyrido-azaheterecydic compound and preparation method and use thereof” (SHANGHAI INSTITUTE OF MATERIA MEDICA, CHINESE ACADEMY OF …, priority 2015, dated 2020).
